# In patent publication US8026237B2, “Pyrrole derivatives as pharmaceutical agents” (Exelixis, Inc., priority 2004, dated 2011):
# pIC50: −log10 of the molar value.
# Molecular target: T1, human MR (GAL4-MR chimera, amino acids 671 to 984) (Homo sapiens, UniProt P08235)
# T1 construct: expressed in transfected cells; host or cells: CV-1 (African Green Monkey Kidney Cells)
# T1 sequence (P08235 671-984): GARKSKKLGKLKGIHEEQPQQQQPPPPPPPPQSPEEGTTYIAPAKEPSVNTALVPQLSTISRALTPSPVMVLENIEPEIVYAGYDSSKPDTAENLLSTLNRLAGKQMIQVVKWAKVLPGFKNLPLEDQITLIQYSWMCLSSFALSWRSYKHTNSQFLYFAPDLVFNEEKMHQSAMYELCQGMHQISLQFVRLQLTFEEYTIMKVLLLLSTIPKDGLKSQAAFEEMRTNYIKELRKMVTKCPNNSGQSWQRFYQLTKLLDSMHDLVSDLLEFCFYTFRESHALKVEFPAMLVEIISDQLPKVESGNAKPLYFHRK
# Experiment: GAL4-MR cell based assay (antagonist format)
# Details: not given
# Experimental: Compound activity was determined in a cell-based assay using a GAL4-MR chimera to identify compounds with the ability to modulate MR activity.
# The pCMX-GAL4-MR expression plasmid was constructed by cloning nucleotides encoding amino acids 671 to 984 of human MR (see GenBank sequence AAA59571) into the vector pCMX-GAL4 (Perlmann et al., 1993,Genes & Development 7:1411-1422) comprising nucleotides encoding for amino acids 1-147 of the GAL4 DNA binding domain.
# The TK-MH100x4-Luc (GAL4UAS-TK-Luciferase) reporter construct was constructed by insertion of four copies of the Gal4 UAS (Kang et al. 1993, J. Biol. Chem. 268:9629-9635) into the Hind III site of TK-Luc. The parental plasmid, TK-Luc, was prepared by insertion of the Herpes simplex virus thymidine kinase gene promoter (−105 to +51) obtained from the plasmid pBLCAT2 by digestion with HindIII and XhoI (described in Luckow et al., 1987, Nuc. Acid. Res. 15:5490) into the plasmid MMTV-LUC described by Hollenberg and Evans, 1988, Cell 55:899-906) after removal of MMTV-LTR promoter sequence from MMTV-LUC via digestion with HindIII and XhoI. Correct cloning was confirmed by restriction digestion and/or sequencing.
# Assays were performed using CV-1 (African Green Monkey Kidney Cells) (ATCC) cells grown in T175 flasks at a density of 3×10^6 cells/flask in DMEM with 5% FBS. Cells were transfected one day after plating at 70-80 percent confluency with a DNA mixture containing (per T175 flask) 9 μg pCMX-GAL4-MR, 9 μg TK-MH100x4-Luc, and 2 μg pCMX β-Gal using the transfection reagent FuGENE6 (Roche Molecular Biochemicals, Indianapolis, Ind.) following recommended protocols and instructions provided by the manufacturer, and incubated with transfection reagents for 5 hours at 37° C.
# Transfected cells were trypsinized, resuspended in media, and 45 μL was added to assay plates at a density of approximately 5,000 cells/well using a MultiDrop dispenser (MTX Lab Systems, Inc., VA). The assay plates containing both compounds and screening cells were incubated for approximately 20 hours at 37° C. and 5% CO2 in a tissue culture incubator.
# After incubation of the transfected cells with compounds, Lysis buffer (1% Triton X-100, 10% Glycerol, 5 mM DTT, 1 mM EGTA, 25 mM Tricine, pH 7.8) and Luciferin assay buffer (0.73 mM ATP, 22.3 mM Tricine, 0.11 mM EDTA, 33.3 mM DTT, 0.2M MgSO4, 11 mM Luciferin, 6.1 mM Coenzyme A, 0.01 mM HEPES, pH 7.8) were prepared. Media was removed from the plates and lysis buffer and luciferin assay buffer mixed in a 1:1 ratio and then 30 μl of the mixture was added to each well using a Multidrop dispenser. Plates were read on the Northstar (Applied Biosystems, Foster City, Calif.) and data was analyzed using ActivityBase (ID Business Solutions, Ltd., Guildford, Surrey, UK). If required, luciferase values may be normalized for transfection efficiency by measuring β-galactosidase activity based on expression from the pCMX-Gal expression plasmid as described previously (Willy et al., 1995, Gene & Development, 9:1033-1045).
row,SMILES,pIC50
1,"Cc1cc(C(=O)NCCc2ccccc2)c(C)n1-c1ccccc1C(F)(F)F [2,5-dimethyl-1-(2-trifluoromethyl-phenyl)-1H-pyrrole-3-carboxylic acid phenethyl-amide]",> 6.30
2,"Cc1cc(C(=O)NCc2ccc(Oc3ccccc3)cc2)c(C)n1-c1ccccc1C(F)(F)F [2,5-dimethyl-1-(2-trifluoromethyl-phenyl)-1H-pyrrole-3-carboxylic acid 4-phenoxy-benzylamide]",5.30 to 6.00
3,"Cc1cc(C(=O)NCCc2cccs2)c(C)n1-c1ccccc1C(F)(F)F [2,5-dimethyl-1-(2-trifluoromethyl-phenyl)-1H-pyrrole-3-carboxylic acid (2-thiophen-2-yl-ethyl)-amide]",6.00 to 6.30
4,"Cc1cc(C(=O)NCCc2cccc(Cl)c2)c(C)n1-c1ccccc1C(F)(F)F [2,5-dimethyl-1-(2-trifluoromethyl-phenyl)-1H-pyrrole-3-carboxylic acid [2-(3-chloro-phenyl)-ethyl]-amide]",5.30 to 6.00
5,"Cc1cc(C(=O)NCCc2ccccc2Cl)c(C)n1-c1ccccc1C(F)(F)F [2,5-dimethyl-1-(2-trifluoromethyl-phenyl)-1H-pyrrole-3-carboxylic acid [2-(2-chloro-phenyl)-ethyl]-amide]",6.00 to 6.30
6,"Cc1cc(C(=O)Nc2cc(C(F)(F)F)ccc2F)c(C)n1-c1ccccc1C(F)(F)F [2,5-dimethyl-1-(2-trifluoromethyl-phenyl)-1H-pyrrole-3-carboxylic acid (2-fluoro-5-trifluoromethyl-phenyl)-amide]",5.30 to 6.00

# Tested on: not listed separately
# Experiment: Kinetic solubility assay
# Details: pH 7.4, aqueous buffer, kinetic from dmso stock
# Experimental: The kinetic solubility of test compounds in buffer was evaluated using a 96 well filtration plate format. A 500 μM assay solution in PBS, pH7.4 (or other assay buffer, as needed) was generated form a DMSO stock solution (up to 10 mM). Samples were transferred to a 96 Millipore MultiScreen HTS 96-well Filter plate (Cat# MSSLBPC10) mixed by shaking for 1.5 hours and processed by filtration prior to quantitation by HPLC-UV. Amiodarone and testosterone were used as reference controls.
row,SMILES,solubility kinetic at 1.5 h [µM]
1,C[C@]12CC[C@H]3[C@@H](CCC4=CC(=O)CC[C@@]43C)[C@@H]1CC[C@@H]2O [testosterone],~330
